Key:
[1] = system: dog; settings: Subchronic oral toxicity in nonrodent, beagle, Feed, dose end: 90 day, group: systemic, systemic / hematology / erythrocyte (rbc) count differential / erythrocyte (rbc) + systemic / hematology / hematocrit (hct) / hematocrit (…
[2] = system: rat; settings: Combined chronic toxicity/carcinogenicity, other, Oral, Feed, dose end: 24 month, group: systemic
[3] = system: mouse; settings: Carcinogenicity; cd1; Oral; Feed; dose end: 80 week; group: systemic; systemic / pathology microscopic / liver / adenoma + systemic / in life observation / body weight / body weight gain + systemic / in life …
[4] = system: rat; settings: Subchronic oral toxicity in rodents, sprague dawley, Feed, dose end: 90 day, group: systemic, systemic / in life observation / body weight / body weight + systemic / in life observation / body weight / body weight gain + systemic / in…
[5] = system: dog; settings: Chronic toxicity; beagle; Oral; Feed; dose end: 52 week; group: systemic; systemic / organ weight / liver / relative to body weight + systemic / pathology microscopic / liver / vacuolization + systemic / pathology …
[6] = system: mouse; settings: Carcinogenicity, b6c3f1, Oral, Feed, dose end: 2 year, group: systemic
[7] = system: dog; settings: Chronic toxicity; beagle; Oral; Capsule; dose end: 52 week; group: systemic; systemic / clinical chemistry / thyroxine (t4) / thyroxine (t4), total
[8] = system: rat; settings: Multigenerational reproductive toxicity study, fischer, Oral, Feed, dose end: 2 generation
[9] = system: mouse; settings: Subchronic oral toxicity in rodents, b6c3f1, Feed, dose end: 90 day, group: systemic, systemic / clinical chemistry / glucose / glucose + systemic / in life observation / body weight / body weight gain + systemic / clinical …
[10] = system: rat; settings: Prenatal developmental toxicity study, sprague dawley, Oral, Gavage/Intubation, dose end: 17 GD
[11] = system: rabbit; settings: Prenatal developmental toxicity study, dutch, Oral, Gavage/Intubation, dose end: 18 GD, group: maternal
[12] = system: mouse; settings: Carcinogenicity, b6c3f1, Oral, Feed, dose end: 24 month, group: systemic
[13] = system: rat; settings: Combined chronic toxicity/carcinogenicity, fischer, Oral, Feed, dose end: 2 year, group: systemic
[14] = system: rat; settings: Subchronic oral toxicity in rodents, fischer, Feed, dose end: 90 day, group: systemic
[15] = system: mouse; settings: Chronic toxicity, b6c3f1, Oral, Feed, dose end: 1 year, group: systemic
[16] = system: mouse; settings: Subchronic oral toxicity in rodents, b6c3f1, Feed, dose end: 90 day, group: systemic
[17] = systemic / in life observation / body weight / body weight gain
[18] = systemic / in life observation / body weight / body weight gain + systemic / in life observation / body weight / body weight + systemic / …
[19] = systemic / organ weight / uterus / absolute
[20] = group: offspring, systemic / in life observation / body weight / offspring (pup) weight
[21] = group: parental, systemic / organ weight / kidney / absolute + systemic / organ weight / kidney / relative to body weight + systemic / pathology microscopic…
[22] = group: developmental, developmental / developmental malformation / bone / incomplete ossification + systemic / in life observation / body weight / fetal weight
[23] = group: developmental, developmental / developmental malformation / bone / incomplete ossification + systemic / in life observation / body weight / fetal weight + …
[24] = group: maternal, reproductive / reproductive performance / preimplantation loss / preimplantation loss + systemic / in life observation / body weight / body …
[25] = systemic / in life observation / food consumption / food consumption + reproductive / offspring survival early / litter size / litter size…
[26] = systemic / in life observation / food consumption / food consumption + systemic / in life observation / body weight / body weight gain
[27] = systemic / in life observation / body weight / body weight gain + systemic / organ weight / uterus / absolute + systemic / organ weight / …
[28] = systemic / hematology / erythrocyte (rbc) count differential / erythrocyte (rbc) + systemic / hematology / hematocrit (hct) / hematocrit (…
[29] = systemic / pathology microscopic / mammary gland / fibroadenoma
[30] = systemic / organ weight / kidney / absolute + systemic / organ weight / kidney / relative to body weight + systemic / pathology microscopic…
[31] = systemic / urinalysis / sediment microscopic / crystalluria + systemic / urinalysis / ph / ph
[32] = systemic / pathology microscopic / kidney / pyelonephritis + systemic / pathology microscopic / urinary bladder / inflammation + systemic / …
[33] = systemic / in life observation / body weight / body weight + systemic / organ weight / spleen / absolute

COC(=O)c1ccccc1S(=O)(=O)NC(=O)Nc1nc(OC(F)F)cc(OC(F)F)n1 [Primisulfuron-methyl]
LEL [1]: 250 mg/kg/day
LOAEL [1]: 250 mg/kg/day
NEL [1]: 25 mg/kg/day
NOAEL [1]: 25 mg/kg/day
LEL [2, 17]: 127 mg/kg/day
LOAEL [2, 17]: 127 mg/kg/day
NEL [2, 18]: 12.4 mg/kg/day
NOAEL [2, 18]: 12.4 mg/kg/day
LEL [3]: 408 mg/kg/day
LOAEL [3]: 408 mg/kg/day
NEL [3]: 40.2 mg/kg/day
NOAEL [3]: 40.2 mg/kg/day
LEL [4]: 150 mg/kg/day
LOAEL [4]: 150 mg/kg/day
NEL [4]: 15 mg/kg/day
NOAEL [4]: 15 mg/kg/day
LEL [5]: 125 mg/kg/day
LOAEL [5]: 125 mg/kg/day
NEL [5]: 25 mg/kg/day
NOAEL [5]: 25 mg/kg/day

CCCN(CCC)c1c([N+](=O)[O-])cc(S(N)(=O)=O)cc1[N+](=O)[O-] [Oryzalin]
LOAEL [6, 17]: 287 mg/kg/day
NOAEL [6, 17]: 104 mg/kg/day
LEL [6, 19]: 112 mg/kg/day
NEL ([6]; systemic / organ weight / uterus / absolute + systemic / clinical chemistry / glucose / glucose + systemic / hematology / hematocrit (hct…): 42.2 mg/kg/day
LEL [7]: 1.5 mg/kg/day
LOAEL [7]: 15 mg/kg/day
NEL [7]: < 1.5 mg/kg/day
NOAEL [7]: 5 mg/kg/day
LEL [8, 20]: 179 mg/kg/day
LOAEL [8, 20]: 179 mg/kg/day
NEL [8, 20]: 58.7 mg/kg/day
NOAEL [8, 20]: 58.7 mg/kg/day
LOAEL [8, 21]: 19.4 mg/kg/day
NOAEL [8, 21]: < 19.4 mg/kg/day
LEL [9]: 1430 mg/kg/day
LOAEL [9]: > 1430 mg/kg/day
NEL [9]: < 1430 mg/kg/day
NOAEL [9]: ≥ 1430 mg/kg/day
LEL [10, 22]: 225 mg/kg/day
LOAEL [10, 22]: 225 mg/kg/day
NEL [10, 23]: 50 mg/kg/day
NOAEL [10, 23]: 50 mg/kg/day
LEL [10, 24]: 225 mg/kg/day
LOAEL [10, 24]: 225 mg/kg/day
NEL [10, 24]: 50 mg/kg/day
NOAEL [10, 24]: 50 mg/kg/day
LEL [11, 25]: 55 mg/kg/day
LOAEL [11, 25]: 55 mg/kg/day
NEL [11, 26]: 25 mg/kg/day
NOAEL [11, 26]: 25 mg/kg/day
LOAEL [12, 17]: 521 mg/kg/day
NEL [12, 27]: 71 mg/kg/day
NOAEL [12, 27]: 193 mg/kg/day
LEL [12, 19]: 193 mg/kg/day
LOAEL [13, 28]: 42.9 mg/kg/day
NOAEL [13, 28]: 13.8 mg/kg/day
LEL [13, 29]: 13.8 mg/kg/day
NEL [13, 29]: < 13.8 mg/kg/day
LOAEL [14, 30]: 45.9 mg/kg/day
NOAEL [14, 30]: 4.56 mg/kg/day
LEL [14, 31]: 4.56 mg/kg/day
NEL [14, 31]: < 4.56 mg/kg/day
LEL ([15]; systemic / clinical chemistry / creatinine / creatinine + systemic / clinical chemistry / urea nitrogen / urea nitrogen): 193 mg/kg/day
NEL ([15]; systemic / clinical chemistry / creatinine / creatinine + systemic / clinical chemistry / urea nitrogen / urea nitrogen + systemic / …): 71 mg/kg/day
LOAEL [15, 32]: > 521 mg/kg/day
NOAEL [15, 32]: ≥ 521 mg/kg/day
LOAEL ([16]; systemic / in life observation / body weight / body weight): 1140 mg/kg/day
LEL [16, 33]: 1140 mg/kg/day
NEL [16, 33]: 521 mg/kg/day
NOAEL [16, 33]: 521 mg/kg/day
